According to patent US11427548B2 (Arvinas Operations, Inc., priority 2015, dated 2022):
Read-outs that look alike come from different tables or passages of the source.

Target: T1, Androgen Receptor (Homo sapiens, UniProt P10275)
T1 construct: endogenous in cells; host or cells: VCaP cells
T1 sequence (P10275 1-920): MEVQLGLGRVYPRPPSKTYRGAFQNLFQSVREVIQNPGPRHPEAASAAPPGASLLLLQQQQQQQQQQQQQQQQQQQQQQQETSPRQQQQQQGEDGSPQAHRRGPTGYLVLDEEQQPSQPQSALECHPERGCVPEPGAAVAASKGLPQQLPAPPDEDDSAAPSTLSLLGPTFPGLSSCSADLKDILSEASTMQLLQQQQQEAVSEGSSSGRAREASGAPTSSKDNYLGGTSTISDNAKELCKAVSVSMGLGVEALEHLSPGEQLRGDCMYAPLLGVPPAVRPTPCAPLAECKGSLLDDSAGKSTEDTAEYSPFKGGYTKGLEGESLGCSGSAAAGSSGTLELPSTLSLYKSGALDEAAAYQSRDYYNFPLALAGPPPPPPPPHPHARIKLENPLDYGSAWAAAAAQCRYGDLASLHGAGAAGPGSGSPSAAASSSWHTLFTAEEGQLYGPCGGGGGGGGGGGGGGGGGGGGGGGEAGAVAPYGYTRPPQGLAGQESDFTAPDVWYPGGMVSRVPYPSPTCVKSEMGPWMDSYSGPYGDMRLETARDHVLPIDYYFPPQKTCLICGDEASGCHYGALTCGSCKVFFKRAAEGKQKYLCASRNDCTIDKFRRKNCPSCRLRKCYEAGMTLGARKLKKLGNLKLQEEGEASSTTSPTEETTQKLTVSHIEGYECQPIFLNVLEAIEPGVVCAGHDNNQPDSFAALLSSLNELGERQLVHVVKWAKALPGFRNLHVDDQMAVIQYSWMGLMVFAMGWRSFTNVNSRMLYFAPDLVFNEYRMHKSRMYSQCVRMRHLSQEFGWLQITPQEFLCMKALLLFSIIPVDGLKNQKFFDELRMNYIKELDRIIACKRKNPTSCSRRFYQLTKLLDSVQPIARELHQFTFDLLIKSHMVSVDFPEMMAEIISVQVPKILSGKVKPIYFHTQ
Test: Androgen Receptor ELISA assay (PathScan AR ELISA) in VCaP cells: AR degradation, Dmax and DC50
Format: cell-based
How it was run: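 VCaP cells, 30,000/well, grown ≥3 days in phenol red-free RPMI with 5% charcoal-stripped FBS; compound added in 0.1% DMSO with 0.1 nM R1881, 7 half-log doses, 24 h. Lysate AR quantified by PathScan sandwich ELISA, HRP/TMB read at 450 nm, giving DC50 and Dmax.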

[1] = VCaP cells; Table 36; read-out: VCaP DC50
[2] = VCaP, VCaP cells; Table 36; read-out: VCaP Dmax (%)
[3] = VCaP cells; Table 35; read-out: VCaP DC50
[4] = VCaP, VCaP cells; Table 35; read-out: VCaP Dmax (%)

Molecule `Cc1ncsc1-c1ccc([C@H](C)NC(=O)C2C[C@@H](O)CN2C(=O)[C@@H](NC(=O)COCCN2CCN(c3ccc(C(=O)N[C@H]4C(C)(C)[C@H](Oc5ccc(C#N)c(Cl)c5)C4(C)C)cn3)C[C@H]2CO)C(C)(C)C)cc1` (stereo partly drawn) [Example 788, N-((1r,3S)-3-(3-chloro-4-cyanophenoxy)-2,2,4,4-tetramethylcyclobutyl)-6-((3S)-4-(2-(2-(((2S)-1-((4R)-4-hydroxy-2-(((S)-1-(4-(4-methylthiazol-5-yl)phenyl)ethyl)carbamoyl)pyrrolidin-1-yl)-3,3-dimethyl-1-oxobutan-2-yl)amino)-2-oxoethoxy)ethyl)-3-(hydroxymethyl)piperazin-1-yl)nicotinamide] has a DC50 [1] of under 50 nM and a Dmax [2] of over 71%.

`CC(C)(C)[C@H](NC(=O)COCCCCCNc1ccc(C(=O)N[C@H]2C(C)(C)[C@H](Oc3ccc(C#N)c(Cl)c3)C2(C)C)cc1)C(=O)N1C[C@H](O)C[C@H]1C(=O)NCc1ccc(C#N)cn1` [Example 539] gave a DC50 [3] of under 50 nM and a Dmax [4] of 26 to 50%.

`Cc1ncoc1-c1ccc(CNC(=O)[C@@H]2C[C@@H](O)CN2C(=O)[C@@H](NC(=O)COCCCCOc2ccc(-c3ccc(N4C(=S)N(c5cnc(C#N)c(C(F)(F)F)c5)C(=O)C4(C)C)cc3)cc2)C(C)(C)C)cc1` [Example 192, (2S,4R)-1-[(2S)-2-(2-{4-[4-(4-{3-[6-cyano-5-(trifluoromethyl)pyridin-3-yl]-5,5-dimethyl-4-oxo-2-sulfanylideneimidazolidin-1-yl}phenyl)phenoxy]butoxy}acetamido)-3,3-dimethylbutanoyl]-4-hydroxy-N-{[4-(4-methyl-1,3-oxazol-5-yl)phenyl]methyl}pyrrolidine-2-carboxamide] was tested, and the DC50 (VCaP cells; concentration that caused 50% Androgen Receptor degradation; read-out: VCaP DC50) was under 50 nM and the Dmax (VCaP, VCaP cells; highest percentage of Androgen Receptor degradation; read-out: VCaP Dmax (%)) was over 71%.

`Cc1ncsc1-c1ccc([C@H](C)NC(=O)[C@@H]2C[C@@H](O)CN2C(=O)[C@@H](NC(=O)CN2CCN(CCOCCN3CCN(c4ccc(C(=O)N[C@H]5C(C)(C)[C@H](Oc6ccc(C#N)c(Cl)c6)C5(C)C)cn4)CC3)CC2)C(C)(C)C)cc1` [Example 805, N-((1r,3r)-3-(3-chloro-4-cyanophenoxy)-2,2,4,4-tetramethylcyclobutyl)-6-(4-(2-(2-(4-(2-(((S)-1-((2S,4R)-4-hydroxy-2-(((S)-1-(4-(4-methylthiazol-5-yl)phenyl)ethyl)carbamoyl)pyrrolidin-1-yl)-3,3-dimethyl-1-oxobutan-2-yl)amino)-2-oxoethyl)piperazin-1-yl)ethoxy)ethyl)piperazin-1-yl)nicotinamide] was tested, and the DC50 [1] was over 501 nM and the Dmax (VCaP, read-out: VCaP Dmax (%), VCaP cells; Table 36) was under 25%.

`CC(C)(C)[C@H](NC(=O)COCCCCCNc1ccc(C(=O)N[C@H]2C(C)(C)[C@H](Oc3ccc(C#N)c(Cl)c3)C2(C)C)cc1)C(=O)N1C[C@H](O)C[C@H]1C(=O)NCc1ccc(C(=O)O)cc1` [Example 512] was tested, and the DC50 [3] was 51 to 500 nM and the Dmax [4] was 51 to 70%.

Work on `CC(C)(C)[C@H](NC(=O)COCCCCCNc1ccc(C(=O)N[C@H]2C(C)(C)[C@H](Oc3ccc(C#N)c(Cl)c3)C2(C)C)cc1)C(=O)N1C[C@H](O)C[C@H]1C(=O)NCc1ccc(-c2scnc2C(=O)O)cc1` [Example 502] yielded a DC50 [3] of 51 to 500 nM and a Dmax [4] of 26 to 50%.

Molecule `CC(C)(C)[C@H](NC(=O)COCCCCCNc1ccc(C(=O)N[C@H]2C(C)(C)[C@H](Oc3ccc(C#N)c(Cl)c3)C2(C)C)cc1)C(=O)N1C[C@H](O)C[C@H]1C(=O)NCc1ccc(-n2ncnn2)cc1` [Example 506] has a DC50 [3] of under 50 nM and a Dmax [4] of 51 to 70%.

With `Cc1ncsc1-c1ccc([C@H](C)NC(=O)[C@@H]2CCCN2C(=O)[C@@H](NC(=O)CN2CCN(CCCc3ccc(C(=O)N[C@H]4C(C)(C)[C@H](Oc5ccc(C#N)c(C(F)(F)F)c5)C4(C)C)cc3)CC2)C(C)(C)C)cc1` [Example 724, (S)-1-((S)-2-(2-(4-(3-(4-(((1r,3r)-3-(4-cyano-3-(trifluoromethyl)phenoxy)-2,2,4,4-tetramethylcyclobutyl)carbamoyl)phenyl)propyl)piperazin-1-yl)acetamido)-3,3-dimethylbutanoyl)-N-((S)-1-(4-(4-methylthiazol-5-yl)phenyl)ethyl)pyrrolidine-2-carboxamide] the DC50 [1] was over 501 nM and the Dmax [2] was under 25%.

`Cc1ncsc1-c1ccc([C@H](C)NC(=O)[C@@H]2C[C@@H](O)CN2C(=O)[C@@H](C(C)C)n2cc(OCCCOCCC(O)CCOc3ccc(N4C(=S)N(c5ccc(C#N)c(C(F)(F)F)c5)C(=O)C4(C)C)cc3)cn2)cc1` (some centres unmarked) [Example 418] showed a Dmax (VCaP, read-out: VCaP Dmax (%)) of 51 to 70% and a DC50 (read-out: VCaP DC50; VCaP cells; Table 35) of under 50 nM.

`Cc1ncsc1-c1ccc([C@H](C)NC(=O)C2C[C@@H](O)CN2C(=O)[C@@H](NC(=O)COCCN2CCCN(c3ccc(C(=O)N[C@H]4C(C)(C)[C@H](Oc5ccc(C#N)c(Cl)c5)C4(C)C)cn3)CC2)C(C)(C)C)cc1` (stereo partly drawn) [Example 782, N-((1r,3r)-3-(3-chloro-4-cyanophenoxy)-2,2,4,4-tetramethylcyclobutyl)-6-(4-(2-(2-(((S)-1-((2S,4R)-4-hydroxy-2-(((S)-1-(4-(4-methylthiazol-5-yl)phenyl)ethyl)carbamoyl)pyrrolidin-1-yl)-3,3-dimethyl-1-oxobutan-2-yl)amino)-2-oxoethoxy)ethyl)-1,4-diazepan-1-yl)nicotinamide] gave a DC50 [1] of under 50 nM and a Dmax [2] of over 71%.

Molecule `CCO/N=C(\CCCCC(=O)N[C@H](C(=O)N1C[C@H](O)C[C@H]1C(=O)N[C@@H](C)c1ccc(-c2scnc2C)cc1)C(C)(C)C)CCCc1ccc(C(=O)N[C@H]2C(C)(C)[C@H](Oc3ccc(C#N)c(Cl)c3)C2(C)C)nc1` [Example 695, N-((1r,3r)-3-(3-chloro-4-cyanophenoxy)-2,2,4,4-tetramethylcyclobutyl)-5-((E)-4-(ethoxyimino)-9-(((S)-1-((2S,4R)-4-hydroxy-2-(((S)-1-(4-(4-methylthiazol-5-yl)phenyl)ethyl)carbam-oyl)pyrrolidin-1-yl)-3,3-dimethyl-1-oxobutan-2-yl)amino)-9-oxononyl)picolinamide] has a DC50 [1] of 51 to 500 nM and a Dmax [2] of 51 to 70%.

`Cc1ncsc1-c1ccc(CNC(=O)[C@@H]2C[C@@H](O)CN2C(=O)[C@@H](NC(=O)COCC2CC3(C2)CC(COc2ccc(N4C(=S)N(c5ccc(C#N)c(C(F)(F)F)c5)C(=O)C45CCC5)cc2)C3)C(C)(C)C)cc1` (stereo partly drawn) [Example 203, (2S,4R)-1-[(2S)-2-[2-({6-[(4-{7-[4-cyano-3-(trifluoromethyl)phenyl]-8-oxo-6-sulfanylidene-5,7-diazaspiro[3.4]octan-5-yl}phenoxy)methyl]spiro[3.3]heptan-2-yl}methoxy)acetamido]-3,3-dimethylbutanoyl]-4-hydroxy-N-{[4-(4-methyl-1,3-thiazol-5-yl)phenyl]methyl} pyrrolidine-2-carboxamide] was tested, and the Dmax (VCaP, read-out: VCaP Dmax (%)) was over 71% and the DC50 (read-out: VCaP DC50; VCaP cells; concentration that caused 50% Androgen Receptor degradation) was under 50 nM.

For `Cc1ncsc1-c1ccc([C@H](C)NC(=O)[C@@H]2C[C@@H](O)CN2C(=O)[C@H](c2cc(OCCN3CCN(c4ccc(C(=O)N[C@H]5C(C)(C)[C@H](Oc6ccc(C#N)c(Cl)c6)C5(C)C)cn4)CC3)no2)C(C)C)cc1` [Example 658, N-((1r,3r)-3-(3-chloro-4-cyanophenoxy)-2,2,4,4-tetramethylcyclobutyl)-6-(4-(2-((5-((S)-1-((2S,4R)-4-hydroxy-2-(((S)-1-(4-(4-methylthiazol-5-yl)phenyl)ethyl)carbam-oyl)pyrrolidin-1-yl)-3-methyl-1-oxobutan-2-yl)isoxazol-3-yl)oxy)ethyl)piperazin-1-yl)nicotinamide], the DC50 [1] was over 501 nM and the Dmax [2] was under 25%.

`[2H]C(Nc1ccc(C(=O)N[C@H]2C(C)(C)[C@H](Oc3ccc(C#N)c(Cl)c3)C2(C)C)cc1)C([2H])([2H])C([2H])([2H])C([2H])([2H])C([2H])([2H])OCC(=O)N[C@H](C(=O)N1C[C@H](O)C[C@H]1C(=O)N[C@@H](C)c1ccc(-c2scnc2C)cc1)C(C)(C)C` (some centres unmarked) [Example 863] showed a DC50 [1] of under 50 nM and a Dmax [2] of over 71%.

Molecule `Cc1ncsc1-c1ccc([C@H](C)NC(=O)C2C[C@@H](O)CN2C(=O)[C@@H](NC(=O)COCCC2(CCNc3ccc(C(=O)N[C@H]4C(C)(C)[C@H](Oc5ccc(C#N)c(Cl)c5)C4(C)C)cc3)COC2)C(C)(C)C)cc1` (some centres unmarked) [Example 642] has a DC50 [1] of under 50 nM and a Dmax [2] of over 71%.

With `Cc1ncoc1-c1ccc([C@H](C)NC(=O)[C@@H]2C[C@@H](O)CN2C(=O)[C@@H](NC(=O)COCCCCNc2ccc(-c3ccc(N4C(=S)N(c5cnc(C#N)c(C(F)(F)F)c5)C(=O)C4(C)C)cc3)cc2)C(C)(C)C)cc1` [Example 390] the DC50 (VCaP cells; Table 34; read-out: VCaP DC50) was under 50 nM and the Dmax (VCaP, VCaP cells; Table 34; read-out: VCaP Dmax (%)) was 51 to 70%.
